Tests used:
Type in all cases: in vivo, cimex lectularius
bed bugs [1] = assay: Example 3: carbon dioxide synergism with experimental lure composition, climb-up pitfall trap in infested apartment building, 14 days
Procedure: A molded polypropylene dog dish was turned upside down to form the climb-up pitfall trap 1 as described in Example 2. The trap 1 was positioned on the floor of an apartment building known to be infested by bed bugs, and was tested without any lure. This served as the control test illustrated as Test 6 in FIG. 7. The trap was loaded with a heat blanket (heat source 8). The heat blanket generated temperatures of 44.8 to 47.3 degrees Celsius (112.6 to 117.1 degrees Fahrenheit). The trap 1 with heat source 8 was tested with results shown as Test 2 in FIG. 7. The trap was then loaded with a flexible tube connected to a 5 lbs. compressed carbon dioxide cylinder (carbon dioxide source 9). The carbon cylinder emitted 500 ml/min of carbon dioxide through a tube to the area over the center stage 7 of the trap. The trap with carbon dioxide source 9 was tested with the results shown as Test 4 in FIG. 7. The trap was then loaded with an experimental lure comprising: 100 micrograms of L-lactic acid, 33 micrograms of propionic acid, 0.33 micrograms of butyric acid, 0.33 micrograms of valeric acid and 100 micrograms of octenol (i.e., “lure composition 10”), the experimental lure being combined in a fragrance releasing gel. The trap with experimental lure (lure composition 10) was tested with the results indicated in Test 5 of FIG. 7. […]

bed bugs [2] = assay: Example 1: climb-up pitfall trap with heat source and lures in an infested apartment building, 14 days; conditions: trap with heat source 44.8 to 47.3 degrees Celsius plus lure, FIG. 5
From the text: The exterior surface 2 was covered with cloth, the cloth being attached by masking tape, to form a climbing surface. Precipice 3 was formed by the outer edge of the dog dish. Interior surface 4 was formed by the underside of the outer rim of the dog dish which faces upward when the dog dish is turned upside down. Receptacle 5 was formed along the inside of the precipice 3 by the interior surface 4 and the retaining surface 6, effectively forming a capture moat area. The retaining surface 6 was formed by the underside of the inner bowl walls of the dog dish. Center stage 7 was formed by the underside of the bowl portions of the dog dish. The trap 1 was positioned on the floor of an apartment building known to be infested by bed bugs. Referring to the chronological chart of FIG. 5, the trap 1 was initially loaded with a heat blanket (heat source 8) alone. The heat blanket generated temperatures of 44.8 to 47.3 degrees Celsius (112.6 to 117.1 degrees Fahrenheit). The trap 1 with heat source 8 was tested for 14 days. The trap 1 was then loaded with an octenol lure in addition to the heat source 8, but excluding lactic acid. The heat blanket again generated heat. The trap 1 was then loaded with an octenol and L-lactic acid lure as described above, in place of the octenol lure. The heat blanket again generated heat.

bed bugs [3] = assay: Example 2: climb-up pitfall trap with heat source and lures incl. experimental lure composition, infested apartment building, 14 days; conditions: trap with heat source plus lure, tested several times for 14 days, FIG. 6
From the text: A molded polypropylene dog dish was turned upside down to form climb-up pitfall trap 1 as described in Example 1. The exterior surface 2 was covered with Pellon® featherweight fusible interfacing to form a climbing surface. […] The trap 1 was positioned on the floor of an apartment building known to be infested by bed bugs. As indicated in the bar chart of FIG. 6, the trap 1 was loaded with a heat blanket (heat source 8). The heat blanket generated temperatures of 44.8 to 47.3 degrees Celsius (112.6 to 117.1 degrees Fahrenheit). The trap with heat source 8 was tested several times for 14 days with a modest mean trap count. This test served as a control test. The trap was then loaded with an octenol lure without L-lactic acid. The heat blanket again generated heat. […] The trap was then loaded with an octenol and L-lactic acid lure, in place of the octenol lure. The heat blanket again generated heat. […] The trap was then loaded with an experimental lure consisting of a combination of 100 micrograms of L-lactic acid, 33 micrograms of propionic acid, 0.33 micrograms of butyric acid, 0.33 micrograms of valeric acid and 100 micrograms of octenol (lure composition 10), the experimental lure being combined in a fragrance releasing gel. The heat blanket again generated heat. […]

SMILES | number of bed bugs caught, times the control (trap only) (bed bugs [1]; carbon dioxide 500 ml/min alone, Test 4 of FIG. 7) [times] | number of bed bugs caught, times the control test (trap only) (bed bugs [1]; heat source plus carbon dioxide 500 ml/min, Test 3 of FIG. 7) [times] | bed bugs caught compared with control test (trap with heat source alone) (bed bugs [2]) | mean trap count compared with other traps (bed bugs [3])
O=C=O [carbon dioxide source 9, carbon dioxide] | ~3 | ~4 | – | –
C=CC(O)CCCCC (stereo not shown) [octenol lure, 1-octen-3-ol] | – | – | caught more bugs | less effective results than heat alone
